Consider 41 compounds from article PMC7828447, “Design, Synthesis and Biological Evaluation of Arylpyridin-2-yl Guanidine Derivatives and Cyclic Mimetics as Novel MSK1 Inhibitors. An Application in an Asthma Model” (Molecules, 2021).

Data set [1] concerns the target T1, human synthetic MSK1 (14-438-K, Millipore) (Homo sapiens, UniProt O75582).
T1 construct: purchased Millipore 14-438-K
Description: MSK1 enzymatic inhibition assay (Kinase-Glo luminescence). The format is biochemical. As to conditions: for inhibition at 1 µM: read-out: MSK1 % Inhibition 1 µM; for inhibition at 10 µM: read-out: MSK1 % Inhibition 10 µM; for IC50: 8 concentrations 0.03-100 µM; for MSK1 inhibitory activity (in words): tested at 1 and 10 µM. Here is the method:
All results are summarized in Table 1, Table 2, Table 3, Table 4 and Table 5 and on Figure 4. […]
An orthogonal luminescence-based assay Kinase-Glo® (Promega, Madison, WI, USA) was used to validate the hits, quantifying the amount of the remaining ATP in the solution following the kinase reaction. Enzymatic reactions were performed up to 4h at room temperature in presence of 3 µM ATP. All compounds were tested in quadruplicates at 1 µM and 10 µM. […] Luminescence was measured with EnVision Plate Reader (Perkin Elmer).

Setting [2] is: compound at 1 µM, ± Standard Deviation (n = 4).
Setting [3] is: compound at 10 µM, ± Standard Deviation (n = 4).
[4] abbreviates: ± Standard Deviation (n = 4), read-out: MSK1 IC50.
[5] abbreviates: MSK1 IC50, ± Standard Deviation (n = 4).

Structures can show the parent of a compound that is named as a salt. Where two headings read alike, the source gives them in different places. A value given as a limit tells only on which side of the number the result lay.

T1 sequence (O75582 whole entry): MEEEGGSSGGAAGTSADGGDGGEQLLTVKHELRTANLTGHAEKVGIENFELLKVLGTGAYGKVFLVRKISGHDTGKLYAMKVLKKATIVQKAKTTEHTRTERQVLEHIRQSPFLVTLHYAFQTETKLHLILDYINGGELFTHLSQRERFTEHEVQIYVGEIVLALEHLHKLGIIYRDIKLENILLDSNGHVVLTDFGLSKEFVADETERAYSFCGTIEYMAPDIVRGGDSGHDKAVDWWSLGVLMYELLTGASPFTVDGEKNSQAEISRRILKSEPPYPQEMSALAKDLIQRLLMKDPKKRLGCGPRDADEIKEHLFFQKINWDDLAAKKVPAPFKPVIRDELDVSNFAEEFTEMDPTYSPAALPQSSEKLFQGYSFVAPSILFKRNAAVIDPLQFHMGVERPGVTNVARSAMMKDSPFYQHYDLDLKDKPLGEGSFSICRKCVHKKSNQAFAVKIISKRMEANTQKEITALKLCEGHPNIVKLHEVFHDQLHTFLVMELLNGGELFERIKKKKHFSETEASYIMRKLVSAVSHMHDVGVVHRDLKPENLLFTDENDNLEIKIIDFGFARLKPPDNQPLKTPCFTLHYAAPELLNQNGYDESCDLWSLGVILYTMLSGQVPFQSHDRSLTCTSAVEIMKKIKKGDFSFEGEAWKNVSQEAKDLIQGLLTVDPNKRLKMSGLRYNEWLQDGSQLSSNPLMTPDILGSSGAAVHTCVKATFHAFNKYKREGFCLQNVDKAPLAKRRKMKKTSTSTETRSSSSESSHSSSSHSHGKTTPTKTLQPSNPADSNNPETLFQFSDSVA

As for `N=C(N)Nc1cccc(-c2cccc(Cl)c2)n1` [Compound 1e], the inhibition at 1 µM in data set [1] (setting [2]) is 0%. Further, the inhibition at 10 µM in data set [1] (setting [3]) was determined as 45 ± 5%. Further, the IC50 in data set [1] (setting [4]) is 9.7 ± 1 µM.

For `N=C(N)Nc1ccc(CCc2ccccc2)cn1` [Compound 25], in data set [1] (setting [2]), the inhibition at 1 µM came out at 2 ± 4%. In addition, the inhibition at 10 µM in data set [1] (setting [3]) was 6 ± 4%.

Regarding `N=C(N)Nc1ccc(-c2ccccc2)cn1` [Compound 12, 5-phenyl pyridinylguanidine], in data set [1] (setting [2]), the inhibition at 1 µM was -10 ± 2%. The inhibition at 10 µM in data set [1] (setting [3]) was -11 ± 1%. Besides, the “MSK1 inhibitory activity (in words)” value in data set [1] is “inactive”.

As to `N=C(N)Nc1cc(-c2ccccc2)ccn1` [Compound 13], the inhibition at 1 µM in data set [1] (setting [2]) is -4 ± 1%. The inhibition at 10 µM in data set [1] (setting [3]) turned out to be 5 ± 1%. The “MSK1 inhibitory activity (in words)” value in data set [1] was “inactive”.

Regarding `NC(=S)Nc1cccc(-c2ccccc2)n1` [Compound 33, 1(6-phenylpyridin-2-yl)thiourea], in data set [1] (setting [2]), the inhibition at 1 µM is 2 ± 10%. Also, the inhibition at 10 µM in data set [1] (setting [3]) amounted to 5 ± 3%. In addition, the “MSK1 inhibitory activity (in words)” value in data set [1] is “inactive”.

`Cc1ccccc1-c1cccc(NC(=N)N)n1` (as salt: trifluoroacetate) [Compound 1l, 1-[6-(2-Methylphenyl)pyridin-2-yl] guanidiniumtrifluoroacetate]: the melting point fell in the range of 168 to 169 °C.

`N=C(N)Nc1cccc(-c2ccccc2F)n1` (as salt: trifluoroacetate) [Compound 1j, 1-[6-(2-Fluorophenyl)pyridin-2-yl] guanidiniumtrifluoroacetate] had a melting point of 199 to 200 °C.

`O=c1[nH]c2cccc(-c3ccccc3Cl)c2[nH]1` [Compound 64]: in data set [1] (setting [2]), the inhibition at 1 µM was -18 ± 5%. Moreover, the inhibition at 10 µM in data set [1] (setting [3]) stood at 0%. Moreover, in data set [1], the “MSK1 inhibitory activity (in words)” value is given as “inactivity”.

Consider `COc1cccc(-c2cccc(NC(=N)N)n2)c1` [Compound 1f], for which the inhibition at 1 µM in data set [1] (setting [2]) is -7 ± 4%. For the same compound, in data set [1] (setting [3]), the inhibition at 10 µM is 16 ± 4%. For the same compound, in data set [1], the “MSK1 inhibitory activity (in words)” value is “inactive”.

`Nc1nc2c(-c3cccc(Cl)c3Cl)cccc2[nH]1` [Compound 49e, 4-(2,3-Dichlorophenyl)-1H-benzo[d]imidazol-2-amine Hydrobromide]: in data set [1] (setting [2]), the inhibition at 1 µM was found to be 20 ± 3%. Moreover, in data set [1] (setting [3]), the inhibition at 10 µM came to 75 ± 8%. For the same compound, the 50% inhibitory concentration (IC50) in data set [1] (setting [4]) was found to be 3.2 ± 0.2 µM.

Consider `N=C(N)Nc1cccc(-c2ccncc2)n1` [Compound 1r, 1-[6-(Pyridin-4-yl)pyridin-2-yl] guanidiniumtrifluoroacetate], for which the inhibition at 10 µM in data set [1] (setting [3]) was found to be 18 ± 2%.

On to `N=C(N)Nc1cccc(N2CCCCC2)n1` [Compound 31, 2-guanidino-6-piperidinopyridine], for which, in data set [1] (setting [3]), the inhibition at 10 µM is 16 ± 4%. For the same compound, the “MSK1 inhibitory activity (in words)” value in data set [1] is “totally inactive”.

In the case of `Nc1nc2c(-c3ccccc3Cl)cccc2s1` [Compound 67], in data set [1] (setting [2]), the inhibition at 1 µM is -28 ± 7%. For the same compound, the inhibition at 10 µM in data set [1] (setting [3]) was determined as 4 ± 14%. The “MSK1 inhibitory activity (in words)” value in data set [1] was “inactivity”.

Compound `Br.COc1cccc(-c2cccc3c2CNC(N)=N3)c1` [Compound 37e, 5-(3-Methoxyphenyl)-3,4-dihydroquinazolin-2-amine Hydrobromide] came in with a melting point of 198 to 199 °C. In data set [1] (setting [2]), the inhibition at 1 µM was -6 ± 4%. In addition, the inhibition at 10 µM in data set [1] (setting [3]) was determined as 3 ± 7%.

Consider `Nc1nc2cccc(-c3ccccc3Cl)c2n1CCc1ccccc1` [Compound 75], for which, in data set [1] (setting [2]), the inhibition at 1 µM was -6 ± 2%. The inhibition at 10 µM in data set [1] (setting [3]) amounted to 1 ± 2%.

As for `N=C(N)Nc1cccc(-c2ccc(Cl)cc2Cl)n1` (as salt: trifluoroacetate) [Compound 1p, 1-[6-(2,4-Dichlorophenyl)pyridin-2-yl] guanidiniumtrifluoroacetate], the melting point is 196 to 197 °C.

As to `NC1=Nc2ccc(-c3ccccc3)cc2CN1` [Compound 43], in data set [1] (setting [2]), the inhibition at 1 µM stood at 7 ± 9%. In addition, the inhibition at 10 µM in data set [1] (setting [3]) turned out to be 9 ± 6%.

With `COc1ccc(-c2cccc3c2CNC(N)=N3)cc1` [Compound 37c, 5-(4-Methoxyphenyl)-3,4-dihydroquinazolin-2-amine Hydrobromide], in data set [1] (setting [2]), the inhibition at 1 µM is -7 ± 4%. In addition, the inhibition at 10 µM in data set [1] (setting [3]) was -5 ± 5%.

On to `Nc1nc2c(-c3ccccc3Cl)cccc2n1CCc1ccccc1` [Compound 74a], for which the inhibition at 1 µM in data set [1] (setting [2]) is -6 ± 3%. Moreover, the inhibition at 10 µM in data set [1] (setting [3]) stood at 41 ± 6%.

In turn, `N=C(N)Nc1cccc(-c2cccnc2Cl)n1` [Compound 1t, 1-(2′-Chloro-[2,3′-bipyridin]-6-yl) guanidiniumtrifluoroacetate] displayed an IC50 in data set [1] (setting [5]) of 12.6 ± 4 µM. The inhibition at 10 µM in data set [1] was 69 ± 11%.

For the compound `Nc1nc2c(-c3ccccc3Cl)cccc2n1CCO` [Compound 74b], in data set [1] (setting [2]), the inhibition at 1 µM is -2 ± 4%. Further, the inhibition at 10 µM in data set [1] (setting [3]) was determined as 49 ± 13%.

For `COc1ccc(-c2cccc(NC(=N)N)n2)cc1` [Compound 1d], in data set [1] (setting [2]), the inhibition at 1 µM is -5 ± 3%. The inhibition at 10 µM in data set [1] (setting [3]) is -3 ± 4%. Further, in data set [1], the “MSK1 inhibitory activity (in words)” value is “inactive”.

Regarding `Nc1nc2c(-c3ccccc3Cl)cccc2n1CCCNC(=O)c1ccccc1` [Compound 74c], in data set [1] (setting [2]), the inhibition at 1 µM was -4 ± 2%. Further, the inhibition at 10 µM in data set [1] (setting [3]) was found to be 37 ± 5%.

Regarding `N=C(N)Nc1cccc(-c2ccccc2Cl)n1` [Compound 1k], the inhibition at 1 µM in data set [1] (setting [2]) was 62 ± 8%. Further, in data set [1] (setting [3]), the inhibition at 10 µM amounted to 95 ± 8%. In addition, the IC50 in data set [1] (setting [4]) was 0.6 ± 0.1 µM.

Consider `Cc1ccccc1-c1cccc(NC(=N)N)n1` [Compound 1l, 1-[6-(2-Methylphenyl)pyridin-2-yl] guanidiniumtrifluoroacetate], for which, in data set [1] (setting [2]), the inhibition at 1 µM is 4 ± 8%. Also, in data set [1] (setting [3]), the inhibition at 10 µM turned out to be 48 ± 15%. Moreover, the half-maximal inhibitory concentration (IC50) in data set [1] (setting [4]) was 3.5 ± 0.3 µM.

Turning to `N=C(N)Nc1cccc(CCc2ccccc2)n1` [Compound 24], the inhibition at 1 µM in data set [1] (setting [2]) was -4 ± 1%. Besides, the inhibition at 10 µM in data set [1] (setting [3]) was -8 ± 1%. Moreover, in data set [1], the “MSK1 inhibitory activity (in words)” value is “inactive”.

Regarding `N=C(N)Nc1cccc(-c2cccc(C(F)(F)F)c2Cl)n1` [Compound 1i, 1-[6-(2-chloro-3-trifluoromethylphenyl)pyridin-2-yl] guanidinium trifluoroacetate], the inhibition at 1 µM in data set [1] (setting [2]) is 10 ± 5%. Besides, the inhibition at 10 µM in data set [1] (setting [3]) was 62 ± 15%. The IC50 in data set [1] (setting [4]) was determined as 8.6 ± 0.9 µM.

As for `N=C(N)Nc1cccc(-c2ccc(Cl)cc2Cl)n1` [Compound 1p, 1-[6-(2,4-Dichlorophenyl)pyridin-2-yl] guanidiniumtrifluoroacetate], the inhibition at 1 µM in data set [1] (setting [2]) was 2 ± 2%. Also, the inhibition at 10 µM in data set [1] (setting [3]) stood at 31 ± 7%. Further, the IC50 in data set [1] (setting [4]) is above 30 µM.

For the compound `N=C(N)Nc1cccc(N2CCCCC2)n1` (as salt: salt) [Compound 31, 2-guanidino-6-piperidinopyridine], the melting point lay in the range of 196 to 197 °C.

Compound `N=C(N)Nc1cccc(-c2ccncc2)n1` (as salt: trifluoroacetate) [Compound 1r, 1-[6-(Pyridin-4-yl)pyridin-2-yl] guanidiniumtrifluoroacetate] came in with a melting point of 208 to 209 °C.

Regarding `N=C(N)Nc1cccc(Cc2ccccc2)n1` (as salt: trifluoroacetate) [Compound 17, 1-(6-Benzylpyridin-2-yl) guanidiniumtrifluoroacetate], the melting point was 161 to 162 °C.

For `N=C(N)Nc1cccc(-c2ccc(Cl)cc2)n1` [Compound 1b], the inhibition at 1 µM in data set [1] (setting [2]) was -4 ± 5%. Also, the inhibition at 10 µM in data set [1] (setting [3]) was determined as 23 ± 1%. In data set [1], the “MSK1 inhibitory activity (in words)” value was “inactive”.

As to `N=C(N)Nc1cccc(Cc2ccccc2)n1` [Compound 17, 1-(6-Benzylpyridin-2-yl) guanidiniumtrifluoroacetate], in data set [1], the inhibition at 1 µM was -2 ± 1%, the inhibition at 10 µM was -2 ± 3% and the “MSK1 inhibitory activity (in words)” value is “inactive”.

As for `Nc1nc2c(-c3ccccc3Cl)cccc2n1CCCCc1ccccc1` [Compound 74d], the inhibition at 1 µM in data set [1] (setting [2]) is 1 ± 3%. The inhibition at 10 µM in data set [1] (setting [3]) is 5 ± 3%.

As for `COc1ncccc1-c1cccc(NC(=N)N)n1` [Compound 1u, 1-(2′-Methoxy-[2,3′-bipyridin]-6-yl) guanidiniumtrifluoroacetate], the IC50 in data set [1] (setting [5]) is above 30 µM. In data set [1], the inhibition at 10 µM amounted to 42 ± 7% and the “MSK1 inhibitory activity (in words)” value is “abolished the inhibitory activity”.

On to `COc1ccccc1-c1cccc(NC(=N)N)n1` [Compound 1n], for which the inhibition at 1 µM in data set [1] (setting [2]) was found to be 16 ± 3%. In data set [1] (setting [3]), the inhibition at 10 µM is 66 ± 12%. For the same compound, the half-inhibitory concentration (IC50) in data set [1] (setting [4]) was determined as 2.3 ± 0.3 µM.

Regarding “6-Phenyl-3,4-dihydrobenzodiazepin-2-amine Hydrochloride [Compound 57]”, the “MSK1 % Inhibition 1 µM” value in data set [1] (setting [2]) came to 8±6%. In addition, the “MSK1 % Inhibition 10 µM” value in data set [1] (setting [3]) was determined as 12±6%. Moreover, the “MSK1 inhibitory activity (in words)” value in data set [1] was “inactive”.

Take `N=C(N)Nc1cccc(-c2cccnc2)n1` [Compound 1s, 1-[6-(Pyridin-3-yl)pyridin-2-yl] guanidinium trifluoroacetate]: in data set [1] (setting [3]), the inhibition at 10 µM amounted to 70 ± 7%. Also, in data set [1] (setting [4]), the half-inhibitory concentration (IC50) amounted to 5.8 ± 0.6 µM.

Regarding `N=C(N)Nc1ncccc1-c1ccccc1` [Compound 14], the inhibition at 1 µM in data set [1] (setting [2]) stood at 1 ± 5%. In data set [1] (setting [3]), the inhibition at 10 µM was found to be 11 ± 5%. For the same compound, in data set [1], the “MSK1 inhibitory activity (in words)” value is “inactive”.

Consider `Nc1nc2cc(-c3ccccc3)ccc2[nH]1` [Compound 50], for which the inhibition at 1 µM in data set [1] (setting [2]) was -7 ± 5%. Moreover, the inhibition at 10 µM in data set [1] (setting [3]) worked out at 4 ± 4%.

For `N=C(N)Nc1cccc(-c2cc(Cl)ccc2Cl)n1` (as salt: trifluoroacetate) [Compound 1q, 1-[6-(2,5-Dichlorophenyl)pyridin-2-yl] guanidiniumtrifluoroacetate], the melting point was in the range of 151 to 152 °C.
